Experimental findings from patent publication US8394954B2, “Benzophenone hybrids as anticancer agents and processes for the preparation thereof” (Council of Scientific & Industrial Research, priority 2007, dated 2013) are described below.

Data set [1] concerns Melanoma cancer cell lines. Briefly: NCI in vitro anticancer screen, melanoma panel. In kind it is cell-based, human. The settings on record: Homo sapiens, average of six to nine cell lines, read-out: Log GI50 (concentration in mol/L causing 50% growth inhibition) (converted). On the procedure:
(§1) Compounds described herein were evaluated for in vitro anticancer activity. Particularly the 6a, 6b, 6d, 6h, 8a and 8b compounds were evaluated for in vitro anticancer activity against sixty human tumor cells derived from nine cancer types (leukemia, non-small-cell lung, colon, […], ovarian, prostate, and breast cancer) as shown in (Table 2 and 3). For the compound, dose response curves for each cell line were measured at a minimum of five concentrations at 10 fold dilutions. A protocol of 48 h continuous drug exposure was used and a sulforhodamine B (SRB) protein assay was used to estimate cell viability or growth. The concentration causing 50% cell growth inhibition (GI50), total cell growth inhibition (TGI 0% growth) and 50% cell death (LC50, −50% growth) compared with the control was calculated.

Data set [2] deals with Leukemia cancer cell lines. Briefly: NCI in vitro anticancer screen, leukemia panel. In kind it is cell-based, human. The following applies: Homo sapiens, average of six to nine cell lines, read-out: Log GI50 (concentration in mol/L causing 50% growth inhibition) (converted). On the procedure:
as §1

The next data set relates to Colon cancer cell lines. Briefly: NCI in vitro anticancer screen, colon panel. The class given is cell-based, human. The settings on record: Homo sapiens, average of six to nine cell lines, read-out: Log GI50 (concentration in mol/L causing 50% growth inhibition) (converted). As for the experimental part: as §1
Data set [3] relates to sixty human tumor cells derived from nine cancer types. Briefly: NCI in vitro anticancer screen, 48 h exposure, SRB assay, mean over all lines. The class given is cell-based. The settings on record: for Log10LC50 mean graph midpoint (MG_MID) / Log10GI50 mean graph midpoint (MG_MID) / Log10TGI mean graph midpoint (MG_MID): human tumor cell lines, 48 h exposure; for Log10LC50 mean graph midpoint (MG_MID): 50% cell death; for Log10GI50 mean graph midpoint (MG_MID): 50% cell growth inhibition; for Log10TGI mean graph midpoint (MG_MID): total cell growth inhibition. As for the experimental part: as §1

Data set [4] deals with Nonsmall-cell-lung cancer cell lines. The data set is described as follows: NCI in vitro anticancer screen, non-small-cell lung panel. The class given is cell-based, human. The settings on record: Homo sapiens, average of six to nine cell lines, read-out: Log GI50 (concentration in mol/L causing 50% growth inhibition) (converted). On the procedure: as §1
For data set [5], the system named is duplex-form calf thymus DNA (CT-DNA). Briefly: Thermal denaturation studies with CT-DNA. In kind it is binding. The settings on record: [BPD]:[DNA] molar ratio 1:5, CT-DNA 100 μM, ligand 20 μM, pH 7.00. On the procedure: Compounds were subjected to thermal denaturation studies with duplex-form calf thymus DNA (CT-DNA). Working solutions in aqueous buffer (10 mM NaH2PO4/Na2HPO4, 1 mM Na2EDTA, pH 7.00+0.01) containing CT-DNA (100 μm in phosphate) and the BPD (20 μm) were prepared by addition of concentrated BPD solutions in DMSO to obtain a fixed [BPD]/[DNA] molar ratio of 1:5. The DNA-BPD solutions were incubated at 37° C. for 0, 18, and 36 h prior to analysis. Samples were monitored at 260 nm using a Beckman DU-7400 spectrophotometer fitted with high performance temperature controller, and heating was applied at 1° C. min-1 in the 40-90° C. range. DNA helix coil transition temperatures (Tm) were obtained from the maxima in the (dA260)/dT derivative plots. Results are given as the mean±standard deviation from three determinations and are corrected for the effects of DMSO co-solvent using a linear correction term. Drug-induced alterations in DNA melting behavior are given by: ΔTm=Tm(DNA+BPD)−Tm(DNA alone), where the Tm value for the BPD-free CT-DNA is 69.0±0.01.

The subject of another data set is CNS cancer cell lines. The data set is described as follows: NCI in vitro anticancer screen, CNS panel. The class given is cell-based, human. The settings on record: Homo sapiens, average of six to nine cell lines, read-out: Log GI50 (concentration in mol/L causing 50% growth inhibition) (converted). On the procedure: as §1
The next data set has as its system Renal cancer cell lines. The data set is described as follows: NCI in vitro anticancer screen, renal panel. The class given is cell-based, human. The following applies: Homo sapiens, average of six to nine cell lines, read-out: Log GI50 (concentration in mol/L causing 50% growth inhibition) (converted). As for the experimental part:
as §1

The test system of a further data set is Breast cancer cell lines. Briefly: NCI in vitro anticancer screen, breast panel. The class given is cell-based, human. The settings on record: Homo sapiens, average of six to nine cell lines, read-out: Log GI50 (concentration in mol/L causing 50% growth inhibition) (converted). On the procedure:
as §1

The subject of data set [6] is Ovarian cancer cell lines. Briefly: NCI in vitro anticancer screen, ovarian panel. The class given is cell-based, human. The following applies: Homo sapiens, average of six to nine cell lines, read-out: Log GI50 (concentration in mol/L causing 50% growth inhibition) (converted). On the procedure: as §1
For data set [7], the system named is Prostate cancer cell lines. Briefly: NCI in vitro anticancer screen, prostate panel. The settings on record: Homo sapiens, average of six to nine cell lines, read-out: Log GI50 (concentration in mol/L causing 50% growth inhibition) (converted). The class given is cell-based, human. On the procedure: as §1
In data set [8] the test system is human cancer cell lines of colon (Colo205), lung (Hop-62), cervix (SiHa), prostate (DU145, PC3), oral (DWD, HT1080), and breast (MCF7, Zr-75-1) origin. Briefly: In vitro evaluation of cytotoxic activity in selected human cancer cell lines, 48 h exposure. In kind it is cell-based. The following applies: 48 h continuous drug exposure. On the procedure: In vitro evaluation of cytotoxic activity. Compounds 6a, 6b, 6d, 6e, 8a and 8b were evaluated for in vitro anticancer activity against nine human tumor cells derived from six cancer types (colon, prostate, oral, lung, cervix and breast cancer) as shown in Table 2. […] Compounds 6a, 6b, 6d, 6e, 8a and 8b have been evaluated for their in vitro cytotoxicity in selected human cancer cell lines of colon (Colo205), lung (Hop-62), cervix (SiHa), prostate (DU145, PC3), oral (DWD, HT1080), and breast (MCF7, Zr-75-1) origin. A protocol of 48 h continuous drug exposure has been used and an […] has been used to estimate cell viability or growth. The results are expressed as percent of cell growth determined relative to that of untreated control cells

Each structure is given as a SMILES string. Bounds are passed on as bounds.

As to `O=C(CN1CCN(c2ncccn2)CC1)Nc1ccc(Cl)cc1C(=O)c1ccccc1Cl` [Compound 6b, N1-[4-chloro-2-(2-chlorobenzoyl)phenyl]-2-[4-(2-pyrimidinyl)piperazino]acetamide], the GI50 is 1.78 µM in data set [1]; 5.5 µM in data set [2]; 2.14 µM in the data set on Colon cancer cell lines; 3.63 µM in [4]; 5.89 µM in the data set on CNS cancer cell lines; 5.62 µM with Renal cancer cell lines. Also, the GI50 with Breast cancer cell lines was 6.76 µM; in data set [6] it was 5.75 µM; in data set [7], 16.6 µM. In addition, the “Log10LC50 mean graph midpoint (MG_MID)” value in data set [3] is listed as −5.73. For the same compound, the “Log10GI50 mean graph midpoint (MG_MID)” value in data set [3] is given as −6.57. In addition, in data set [3], the “Log10TGI mean graph midpoint (MG_MID)” value is recorded as −6.89. The “ΔTm after incubation at 37° C. for 0 h” value in [5] amounted to 1.5 °C. Moreover, the “ΔTm after incubation at 37° C. for 18 h” value in data set [5] amounted to 2.1 °C. For the same compound, the “ΔTm after incubation at 37° C. for 36 h” value in data set [5] amounted to 2.6 °C.

`COc1ccccc1N1CCN(CC(=O)Nc2ccc(Cl)cc2C(=O)c2ccccc2Cl)CC1` [Compound 6c, N1-[4-chloro-2-(2-chlorobenzoyl)phenyl]-2-[4-(2-methoxyphenyl)piperazino]acetamide]: in data set [8], the “cytotoxicity against some cancer cell lines” value was “promising cytotoxicity”. For the same compound, in data set [5], the “ΔTm after incubation at 37° C. for 0 h” value was 1.4 °C, the “ΔTm after incubation at 37° C. for 18 h” value was 1.6 °C and the “ΔTm after incubation at 37° C. for 36 h” value turned out to be 2.3 °C.

Turning to `O=C(CN1CCN(CC(=O)Nc2ccc(Cl)cc2C(=O)c2ccccc2Cl)CC1)Nc1ccc(Cl)cc1C(=O)c1ccccc1Cl` [Compound 6f, N1-[4-chloro-2-(2-chlorobenzoyl)phenyl]-2-(4-2-[4-chloro-2-(2-chlorobenzoyl)anilino]-2-oxoethylpiperazino)acetamide], in data set [5], the “ΔTm after incubation at 37° C. for 0 h” value came to 1.3 °C, the “ΔTm after incubation at 37° C. for 18 h” value is 2.1 °C and the “ΔTm after incubation at 37° C. for 36 h” value worked out at 3.0 °C.

As to `O=C(CN1CCN(CCCN2CCN(CC(=O)Nc3ccc(Cl)cc3C(=O)c3ccccc3Cl)CC2)CC1)Nc1ccc(Cl)cc1C(=O)c1ccccc1Cl` [Compound 6g], in data set [5], the “ΔTm after incubation at 37° C. for 0 h” value came to 1.6 °C, the “ΔTm after incubation at 37° C. for 18 h” value came out at 2.6 °C and the “ΔTm after incubation at 37° C. for 36 h” value came out at 2.9 °C.

For `COc1cc(/C=C/C(=O)c2ccc(F)cc2)ccc1OCCCN1CCN(CC(=O)Nc2ccc(Cl)cc2C(=O)c2ccccc2Cl)CC1` [Compound 8], in [5], the “ΔTm after incubation at 37° C. for 0 h” value stood at 1.5 °C, the “ΔTm after incubation at 37° C. for 18 h” value is 2.3 °C and the “ΔTm after incubation at 37° C. for 36 h” value turned out to be 2.4 °C.

`O=C(c1ccccc1)c1cc(Cl)ccc1OCCCCN1CCN(CCCCOc2ccc(Cl)cc2C(=O)c2ccccc2)CC1` [Compound 8b]: the GI50 in data set [2] was 0.631 µM; in data set [3] (Homo sapiens, wide spectrum of activity against sixty cell lines in nine cell panels), under 20 µM; in data set [4], 3.24 µM; in the data set with CNS cancer cell lines, 4.17 µM; in the data set with Renal cancer cell lines, 2.57 µM; with Breast cancer cell lines, 3.47 µM. For the same compound, the GI50 in [6] is 5.75 µM; in [7], 3.16 µM. The “Log10LC50 mean graph midpoint (MG_MID)” value in data set [3] is on record as −5.25. Besides, the “Log10GI50 mean graph midpoint (MG_MID)” value in data set [3] is given as −6.35. The “Log10TGI mean graph midpoint (MG_MID)” value in [3] is listed as −5.51. In addition, the “ΔTm after incubation at 37° C. for 0 h” value in [5] is 1.6 °C. For the same compound, in [5], the “ΔTm after incubation at 37° C. for 18 h” value came out at 2.6 °C. Besides, in data set [5], the “ΔTm after incubation at 37° C. for 36 h” value was 2.9 °C.

For `COc1cc2c(cc1O)N=CC1CCCN1C2=O` (centres unmarked) [DC-81, reference compound], in data set [5], the “ΔTm after incubation at 37° C. for 0 h” value was 0.3 °C and the “ΔTm after incubation at 37° C. for 18 h” value amounted to 0.7 °C.
